This is an account of results in US11976083B2, “Inhibitors of peptidylarginine deiminases” (Gilead Sciences, Inc., priority 2020, dated 2024).

In this assay the target is T1, human PAD4 (Homo sapiens, UniProt Q9UM07).
T1 construct: human PAD4 (NM_012387), A2-P663, was PCR amplified; His-SUMO (N, cleaved yes); made in house; host or cells: E. coli BL21(DE3)
T1 sequence (Q9UM07 2-663): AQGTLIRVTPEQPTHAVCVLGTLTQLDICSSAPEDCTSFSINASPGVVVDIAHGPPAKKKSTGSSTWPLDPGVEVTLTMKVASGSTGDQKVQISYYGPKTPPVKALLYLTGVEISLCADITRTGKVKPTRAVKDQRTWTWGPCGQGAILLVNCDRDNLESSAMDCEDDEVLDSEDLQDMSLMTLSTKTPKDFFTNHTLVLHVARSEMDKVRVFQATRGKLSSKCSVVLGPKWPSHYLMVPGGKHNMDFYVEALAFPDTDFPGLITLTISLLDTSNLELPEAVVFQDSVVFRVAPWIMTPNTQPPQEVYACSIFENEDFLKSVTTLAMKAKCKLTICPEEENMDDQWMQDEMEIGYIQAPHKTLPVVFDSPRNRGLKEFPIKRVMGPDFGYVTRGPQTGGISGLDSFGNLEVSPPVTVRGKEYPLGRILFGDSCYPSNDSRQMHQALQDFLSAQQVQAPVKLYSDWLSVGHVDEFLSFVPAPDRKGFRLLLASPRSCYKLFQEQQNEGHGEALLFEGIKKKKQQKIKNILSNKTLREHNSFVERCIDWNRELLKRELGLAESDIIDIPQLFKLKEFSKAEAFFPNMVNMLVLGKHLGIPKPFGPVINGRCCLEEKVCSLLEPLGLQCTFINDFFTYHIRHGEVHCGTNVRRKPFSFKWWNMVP
The assay is described as follows: In vitro PAD4 BAEE biochemical assay. The following applies: BAEE substrate 3 mM, 5 nM PAD4, 2 mM calcium chloride; geometric mean of multiple experiments. The method in brief: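 Assay was run at 25 °C using 3 mM BAEE and 5 nM human PAD4 after a 30 min compound preincubation; ammonia produced over 2 h was quantified by OPA-derived fluorescence. Full inhibition was defined by 50 µM BB-Cl-Amidine, and IC50 came from variable-slope nonlinear regression.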
The term IC50 denotes the concentration that gives 50% inhibition. Consider `C[C@H]1NC(=O)c2c(ccnc2C(F)(F)F)CCCCCn2c(-c3nc4cc(C(=O)N5C[C@H](N)[C@@H]6CC[C@H]5C6)cc(F)c4n3C3CC3)cc3ccc1nc32` [Example 478, (2~{R})-17-[5-[(1~{S},4~{R},5~{R})-4-amino-2-azabicyclo[3.2.1]octane-2-carbonyl]-1-cyclopropyl-7-fluoro-benzimidazol-2-yl]-2-methyl-6-(trifluoromethyl)-3,7,16,22-tetrazatetracyclo[14.5.2.0^{5,10).0^{19,23}] tricosa-1(22),5(10),6,8,17,19(23),20-heptaen-4-one], for which the IC50 stood at 50 nM.

Turning to `C[C@H]1NC(=O)[C@@H]2C[C@H]2CCCC(F)(F)Cn2c(-c3nc4cc(C(=O)N5C[C@H](N)[C@@H]6CC[C@H]5C6)cc(F)c4n3[C@H]3C[C@@H]3F)cc3ccc1nc32` [Example 479, (2~{R},5~{R},7~{R})-14-[5-[(1~{S},4~{R},5~{R})-4-amino-2-azabicyclo[3.2.1]octane-2-carbonyl]-7-fluoro-1-[(1~{S},2~{S})-2-fluorocyclopropyl]benzimidazol-2-yl]-11,11-difluoro-2-methyl-3,13,19-triazatetracyclo[11.5.2.0^{5,7}.0^{16,20}] icosa-1(19),14,16(20),17-tetraen-4-one], the IC50 worked out at 47 nM.

`C[C@H]1NC(=O)[C@@](F)(c2cccc(Cl)n2)CCCCCCn2c(-c3nc4cc(C(=O)N5C[C@H](N)[C@@H]6CC[C@H]5C6)cc(F)c4n3C3CC3)cc3ccc1nc32` [Example 480, (8~{S},11~{R})-17-[5-[(1~{S},4~{R},5~{R})-4-amino-2-azabicyclo[3.2.1]octane-2-carbonyl]-1-cyclopropyl-7-fluoro-benzimidazol-2-yl]-8-(6-chloro-2-pyridyl)-8-fluoro-11-methyl-1,10,19-triazatricyclo[10.5.2.0^{15,18}]nonadeca-12(19),13,15(18),16-tetraen-9-one]: the IC50 was found to be 134 nM.

On to `C[C@H]1NC(=O)[C@](F)(c2cccc(Cl)n2)CCCCCCn2c(-c3nc4cc(C(=O)N5C[C@H](N)[C@@H]6CC[C@H]5C6)cc(F)c4n3C3CC3)cc3ccc1nc32` [Example 481, (8~{R},11~{R})-17-[5-[(1~{S},4~{R},5~{R})-4-amino-2-azabicyclo[3.2.1]octane-2-carbonyl]-1-cyclopropyl-7-fluoro-benzimidazol-2-yl]-8-(6-chloro-2-pyridyl)-8-fluoro-11-methyl-1,10,19-triazatricyclo[10.5.2.0^{15,18}]nonadeca-12(19),13,15(18),16-tetraen-9-one], for which the half-maximal inhibitory concentration (IC50) came out at 231 nM.

For the compound `[2H]C1([2H])CCCC[C@@H]2C[C@H]2C(=O)N[C@H](C)c2ccc3cc(-c4nc5cc(C(=O)N6C[C@H](N)[C@@H]7CC[C@H]6C7)cc(F)c5n4C4CC4)n1c3n2` [Example 482, (2~{R},5~{R},7~{R})-14-[5-[(1~{S},4~{R},5~{R})-4-amino-2-azabicyclo[3.2.1]octane-2-carbonyl]-1-cyclopropyl-7-fluoro-benzimidazol-2-yl]-12,12-dideuterio-2-methyl-3,13,19-triazatetracyclo[11.5.2.0^{5,7}.0^{16,20}] icosa-1(19),14,16(20),17-tetraen-4-one], the IC50 was determined as 26 nM.

As to `C[C@H]1NC(=O)c2nccnc2CCCC(F)(F)Cn2c(-c3nc4cc(C(=O)N5C[C@H](N)[C@@H]6CC[C@H]5C6)cc(F)c4n3C3CC3)cc3ccc1nc32` [Example 483, (2~{R})-17-[5-[(1~{S},4~{R},5~{R})-4-amino-2-azabicyclo[3.2.1]octane-2-carbonyl]-1-cyclopropyl-7-fluoro-benzimidazol-2-yl]-14,14-difluoro-2-methyl-3,6,9,16,22-pentazatetracyclo[14.5.2.0^{5,10}.0^{19, 23}]tricosa-1(22),5(10),6,8,17,19(23),20-heptaen-4-one], the IC50 was found to be 33 nM.

Regarding `COc1cc(C(=O)N2C[C@H](N)[C@@H]3CC[C@H]2C3)cc2nc(-c3cc4ccc5nc4n3CCCCCc3nccnc3C(=O)N[C@@H]5C)n(C)c12` [Example 484, (2~{R})-17-[5-[(1~{S},4~{R},5~{R})-4-amino-2-azabicyclo[3.2.1]octane-2-carbonyl]-7-methoxy-1-methyl-benzimidazol-2-yl]-2-methyl-3,6,9,16,22-pentazatetracyclo[14.5.2.0^{5,10}.0^{19, 23}]tricosa-1(22),5(10),6,8,17,19(23),20-heptaen-4-one], the IC50 stood at 44 nM.

With `C[C@H]1NC(=O)c2nccnc2CCCCCn2c(-c3nc4cc(C(=O)N5C[C@H](N)[C@@H]6CC[C@H]5C6)cc(F)c4n3C3CC3)cc3ccc1nc32` [Example 485, (2~{R})-17-[5-[(1~{S),4~{R},5~{R})-4-amino-2-azabicyclo[3.2.1]octane-2-carbonyl]-1-cyclopropyl-7-fluoro-benzimidazol-2-yl]-2-methyl-3,6,9,16,22-pentazatetracyclo[14.5.2.0^{5,10}.0^{19, 23}]tricosa-1(22),5(10),6,8,17,19(23),20-heptaen-4-one], the IC50 is 29 nM.

For the compound `C[C@H]1NC(=O)C(C)(C)CCCCCCn2c(-c3nc4cc(C(=O)N5[C@H]6CC[C@@H]5[C@H](N)C6)c(F)cc4n3C3CC3)cc3ccc1nc32` [Example 488, (11~{R})-17-[5-[(1~ {R},2~{R},4~{S})-2-amino-7-azabicyclo [2.2.1]heptane-7-carbonyl]-1-cyclopropyl-6-fluoro-benzimidazol-2-yl]-8,8,11-trimethyl-1,10,19-triazatricyclo [10.5.2.0^{15,18}]nonadeca-12(19),13,15(18),16-tetraen-9-one], the IC50 came out at 64 nM.

`COc1cc(C(=O)N2CC[C@@H](OCC(F)F)[C@@H](N)C2)cc2nc(-c3cc4ccc5nc4n3CCCCC[C@@H]3C[C@H]3C(=O)N[C@@H]5C)n(C)c12` [Example 489, (2~{R},5~{R}, 7~{R})-14-[5-[(3~{S},4~{R})-3-amino-4-(2,2-difluoroethoxy)piperidine-1-carbonyl]-7-methoxy-1-methyl-benzimidazol-2-yl]-2-methyl-3,13,19-triazatetracyclo [11.5.2.0^{5,7}.0^{16,20}] icosa-1(19),14,16(20), 17-tetraen-4-one]: the IC50 amounted to 78 nM.

Turning to `COc1cc(C(=O)N2CC[C@@H](OCC3CC3)[C@@H](N)C2)cc2nc(-c3cc4ccc5nc4n3CCCCC[C@@H]3C[C@H]3C(=O)N[C@@H]5C)n(C)c12` [Example 490, (2~{R},5~{R},7~{R})-14-[5-[(3~{S},4~{R})-3-amino-4-(cyclopropylmethoxy)piperidine-1-carbonyl]-7-methoxy-1-methyl-benzimidazol-2-yl]-2-methyl-3,13,19-triazatetracyclo [11.5.2.0^{5,7}.0^{16,20}] icosa-1(19),14,16(20), 17-tetraen-4-one], the IC50 was determined as 86 nM.

`COc1cc(C(=O)N2CC[C@@H](OC(F)F)[C@@H](N)C2)cc2nc(-c3cc4ccc5nc4n3CCCCCc3ccccc3C(=O)N[C@@H]5C)n(C)c12` [Example 491, (2~{R})-17-[5-[(3~ {S},4~{R})-3-amino-4-(difluoromethoxy)piperidine-1-carbonyl]-7-methoxy-1-methyl-benzimidazol-2-yl]-2-methyl-3,16,22-triazatetracyclo [14.5.2.0^{5,10}.0^{19,23}] tricosa-1(22),5(10), 6,8,17,19(23),20-heptaen-4-one]: the concentration for half-maximal inhibition (IC50) came to 253 nM.
